Test results from PMC11873239, “A covalent chemical probe for Chikungunya nsP2 cysteine protease with antialphaviral activity and proteome-wide selectivity” (Scientific Reports, 2025).
Where two headings read alike, the source gives them in different places.

Legend:
CHIKV nsP2pro = CHIKV nsP2pro (Chikungunya virus, UniProt F2YI08); settings: read-out: IC50 (CHIKV nsP2pro inhibition); cited from earlier work
EEEV-nLuc replicon [1] = test: microbe, parasite or virus in culture; settings: Eastern equine encephalitis virus, Fibroblast, in Homo sapiens, 24 h, read-out: IC50 (EEEV-nLuc replicon)
[2] = system: 20 human cysteine proteases and three viral cysteine proteases
EEEV-nLuc replicon [3] = settings: read-out: IC50 (EEEV-nLuc replicon)

Row | SMILES | IC50 (CHIKV nsP2pro) [nM] | IC50 (EEEV-nLuc replicon [1]) [nM] | inhibition across cysteine protease panel [2] | IC50 (EEEV-nLuc replicon [3]) [nM]
1 | CCOc1ccccc1-c1cc2n(n1)C(CS(C)(=O)=O)CNC2=O (stereo not shown) [Compound 2] | > 40000 | – | – | –
2 | CCOc1ccccc1-c1cc(C(=O)NC/C=C/S(C)(=O)=O)on1 [Compound 3, (E)−3-(2-ethoxyphenyl)-N-(3-(methylsulfonyl)allyl)isoxazole-5-carboxamide] | – | 930 | no significant inhibition | 930
